Paper PMC3556473, “Absorption, metabolism and excretion of [^14C]pomalidomide in humans following oral administration” (Cancer Chemotherapy and Pharmacology, 2012)
Where “and” joins values, the source holds several entries; their conditions need not be identical. Identical values can stand only once. Like-named read-outs stand apart in the source and are kept apart here.

Columns and labels:
[1] = Plasma pharmacokinetics of pomalidomide and its enantiomers (chiral LC–MS/MS) after a single oral 2 mg dose of [14C]pomalidomide; assay type: in vivo, human
Text: This was an open-label, in-patient, single-dose study in eight non-smoking healthy male adult volunteers conducted in accordance with Good Clinical Practices (GCP) and in compliance with the Declaration of Helsinki. The protocol and consent form were reviewed and approved by the appropriate institutional review board, and all study participants gave written informed consent, before initiation of any study-related procedure. Male subjects were eligible based on standard inclusion/exclusion criteria and were excluded if they had exposure to excess radiation or participated in a study involving radioisotopes within the previous 12 months. Subjects entered the study center on the day prior to dosing and remained at the center for up to 15 days following dosing or until the total radioactivity recovered in excreta was ≥90 % or the radioactivity recovered in excreta per day on three consecutive days was ≤1 % of the administered radioactive dose.
(§1) Each subject was administered a single oral suspension of 2 mg (100 μCi) of [^14C]pomalidomide in seltzer water (75 mL) followed by administration of an additional 140 mL of distilled water. Subjects were fasted for 8 h prior to and 4 h following dose administration. The residual radioactivity in the dosing vials was determined, and for six of the eight subjects (subjects 1–4, 6 and 8), the administered dose (1.93–2.02 mg) was close to the target dose of 2 mg. For subjects 5 and 7, a significant amount of radioactivity remained in the dose vial, resulting in administered doses of 1.59 and 1.51 mg, respectively. Calculations for percent of dose recovered in excreta were based on the actual administered doses.
(§2) Blood was collected into pre-chilled K3EDTA tubes at pre-dose, 0.5, 1, 1.5, 2, 2.5, 3, 4, 6, 8, 10, 12, 24, 48, 72, 120 and 168 h following dose administration. Blood for radioactivity counting was transferred to a clean tube and stored at or below 4 °C until analyzed. Plasma was harvested by centrifugation from the remaining blood. A plasma sample for radioactivity counting was transferred to a fresh tube. Three plasma aliquots were transferred to tubes containing citric acid for metabolite profiling and for determination of pomalidomide enantiomer concentrations in plasma. Urine was collected pre-dose, 0–6, 6-12, 12–24 and every 24 h thereafter up to 216 h (9 days) following dose administration and were stabilized with one volume of pH 1.5 Sorensen’s citrate buffer (25 mM sodium citrate buffer adjusted to pH 1.5). During the 12- to 24-h collection interval for subject 4, approximately 550 mL of urine was inadvertently poured into the wrong collection urinal and the sample was lost. […] Individual fecal samples were collected pre-dose and for up to 9 days following dose administration, and homogenized using approximately three volumes by weight of pH 1.5 Sorensen’s citrate buffer. All urine, fecal homogenates and plasma samples were stored at or below −20 °C until analyzed.
Plasma concentrations of each pomalidomide enantiomer were determined using a chiral LC–MS/MS assay. The pomalidomide enantiomers and ^13C-labeled pomalidomide (internal standard; IS) were extracted from plasma (stabilized with citric acid) using liquid–liquid extraction with methyl tertiary butyl ether. After transfer to a new tube, the solvent was evaporated, and the samples were reconstituted and injected for LC–MS/MS analysis using a Chiral AGP (50 × 3.0 mm, 5 μm; Chrom Tech, Inc., Apple Valley, MN) analytical column. Positive ions were measured in the multiple reaction monitoring (MRM) mode using a Sciex API-4000 tandem mass spectrometer equipped with a Turbo Ion Spray source. For the QC samples, the accuracy ranged from 91.0 to 106.9 %. For study samples, the amount of [^14C]-labeled material was accounted for when calculating the concentration of enantiomers in plasma using an appropriate correction factor. […]

[2] = Pharmacokinetics of total radioactivity in whole blood and plasma after a single oral 2 mg dose of [14C]pomalidomide; assay type: in vivo, human
Procedure: as §1, §2
(§3) All radioactivity determinations were performed using Tri-Carb model 2900TR liquid scintillation counter (PerkinElmer, Wellesley, MA). For plasma, urine and residual dose vial analysis, duplicate samples were mixed with Ultima Gold XR scintillation cocktail and directly analyzed by liquid scintillation counting. For fecal homogenate and blood samples, duplicate aliquots were weighed, allowed to dry and combusted using a PerkinElmer model 307 sample oxidizer. The resultant [^14C]CO2 was trapped in Carbosorb (PerkinElmer) in combination with Permafluor and assayed by liquid scintillation counting. For all matrices, any sample that was less than two times the background dpm was assigned a value of zero. Using these criteria, the lower limits of quantification in plasma, blood, urine and feces were 0.894 ng [^14C]pomalidomide equivalent/mL (ngEq/mL), 0.939 ngEq/g, 0.871 ngEq/mL and 2.96 ngEq/g, respectively.
Standard pharmacokinetic parameters were estimated from the pomalidomide (as the sum of the enantiomer concentrations at each time point) and enantiomer concentration versus time profiles or the blood and plasma radioactive concentration equivalents versus time profiles using established non-compartmental methods with WinNonlin (Version 5.2, Pharsight Corp., CA). Pre-dose samples that were below the limit of quantification (BLQ) or missing were assigned a numerical value of zero for the calculation of AUC. All post-dose BLQ were treated as missing in the PK analysis.
Total radioactivity in whole blood and plasma was converted to nanogram equivalent (ngEq) concentrations (ngEq/g for whole blood or ngEq/mL for plasma) based on the actual specific activity of the dose.

[3] = parameters: method as in earlier work; conditions: ref 2 and unpublished data, cited from earlier work
[4] = Excretion of radioactivity in urine and feces (mass balance); assay type: in vivo, human
Procedure: as §1, §2, §3
The amount of total radioactivity (ngEq) in urine and feces was determined by multiplying the volume or weight of the samples by the radioactivity concentration. The dose recovered at each time point was determined by total radioactivity in the sample, divided by the total dose administered, multiplied by 100 %. For data BLQ values, a value of zero was assigned for calculations of means.

[5] = plasma, as [14C]pomalidomide equivalents, mean ± SD
[6] = whole blood, as [14C]pomalidomide equivalents, mean ± SD
[7] = percentage of dose, over 216 h, listed as [^14C]pomalidomide

Compound: Nc1cccc2c1C(=O)N(C1CCC(=O)NC1=O)C2=O (racemic) [Pomalidomide, (RS)-4-amino-2-(2,6-dioxo-piperidin-3-yl)-isoindoline-1,3-dione]
- Cmax ([1]; human, healthy male subjects, mean ± SD (n = 8)): 13 ± 3.9 ng/mL
- AUC(0-inf) ([1]; male, human, mean ± SD (n = 8)): 189 ± 52 ng·h/mL
- AUC(0-t) ([1]; male, human, mean ± SD (n = 8)): 137 ± 67 ng·h/mL
- half-life ([1]; male, human, po, 2 mg, mean ± SD (n = 8), read-out: t ½ (converted)): 11.2 h
- Tmax ([1]; male, human, po, 2 mg, median (min–max)): < 3.5 h
- t ½ ([1]; mean ± SD (n = 8)): 8.9 ± 3.4 h
- T max ([1]; median (min–max)): 3.0 (2.0–6.0) h
- AUC0−t, plasma total radioactivity [2, 5]: 189 ± 88 ng·h/mL
- AUC0−∞, plasma total radioactivity [2, 5]: 225 ± 94 ng·h/mL
- AUC0–24, TRA (total radioactivity) ([2]; plasma, geometric mean (%CV)): 194 (27.6) ngEq*h/mL
- AUC0−∞, TRA (total radioactivity) ([2]; plasma, geometric mean (%CV)): 245 (37.9) ngEq*h/mL
- C max, TRA (total radioactivity) ([2]; plasma, geometric mean (%CV)): 14.8 (17.8) ngEq/mL
- t ½, TRA (total radioactivity) ([2]; plasma, geometric mean (%CV)): 10.3 (23.5) h
- t ½, plasma total radioactivity ([2]; plasma, mean ± SD, listed as [^14C]pomalidomide): 11.2 ± 2.5 h
- T max, plasma total radioactivity ([2]; plasma, median (min–max), listed as [^14C]pomalidomide): 3.25 (1.0–4.0) h
- T max, TRA (total radioactivity) ([2]; plasma, median and range): 2.5 (1.0–4.0) h
- C max, plasma total radioactivity ([2]; plasma, single oral 2 mg, mean ± SD): 12.1 ± 2.2 ng [^14C]pomalidomide equivalent/mL
- Radioactivity blood to plasma ratio, AUC0−t ([2]; single oral 2 mg): 0.84
- Radioactivity blood to plasma ratio, AUC0−∞ ([2]; single oral 2 mg): 0.87
- Radioactivity blood to plasma ratio, C max ([2]; single oral 2 mg): 0.80
- AUC0−t, whole blood total radioactivity [2, 6]: 225 ± 99 ng·h/mL
- AUC0−∞, whole blood total radioactivity [2, 6]: 260 ± 102 ng·h/mL
- t ½, whole blood total radioactivity ([2]; whole blood, mean ± SD): 10.2 ± 1.9 h
- T max, whole blood total radioactivity ([2]; whole blood, median (min–max)): 2.5 (1.0–4.0) h
- C max, whole blood total radioactivity ([2]; whole blood, single oral 2 mg, mean ± SD): 15.1 ± 2.7 ng [^14C]pomalidomide equivalent/mL
- mean C max and AUC accumulation ratios ([3]; once-daily administrations, MM patients): < 2
- half-life ([3]; relapsed or refractory MM patients): 6.5 to 8.0 h
- mean total recovery of radioactivity (urine + feces) ([4]; % of radioactive dose, collection over 216 h (9 days), eight subjects, listed as [^14C]pomalidomide): 88% and 88.3%
- oral absorption ([4]; inferred from urinary radioactivity and unchanged drug in feces): > 70%
- radioactivity excreted in feces, mean [4, 7]: 15% and 15.5 ± 2.5%
- radioactivity excreted in urine, mean [4, 7]: 73% and 72.8 ± 16.7%
- radioactivity recovered within the first 48 h after dose administration ([4]; urine + feces): > 80%
